Where a name gives a salt, the structure may show the parent alone.
Experiments:
human FLAP = human FLAP (Homo sapiens (Human), UniProt P20292); assay: FLAP binding assay (HTRF); conditions: human FLAP-containing membranes, HTRF format; average of two assay plates, duplicates; read-out: FLAP Binding wild type HTRF Ki
Outline: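 Reported data take the mean of two different plates carrying duplicate samples and use the HTRF ratio as the measured signal.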

[1] = tested on: leukotriene pathway in human whole blood (LTB4 levels); assay: Human whole blood assay (LTB4); type: cell-based; conditions: human whole blood diluted 1:1 in RPMI, stimulated with calcium ionophore A23187; single replicate
Outline: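 Compounds are pre-incubated 15 min at 37° Celsius in RPMI-diluted (1:1) heparinised whole blood before a 30 min A23187 stimulus (7 μg/mL). Plasma LTB4 is read by immunoassay kit, with IC50 calculated from a 4-parameter equation.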

Sequence of human FLAP (P20292 whole entry): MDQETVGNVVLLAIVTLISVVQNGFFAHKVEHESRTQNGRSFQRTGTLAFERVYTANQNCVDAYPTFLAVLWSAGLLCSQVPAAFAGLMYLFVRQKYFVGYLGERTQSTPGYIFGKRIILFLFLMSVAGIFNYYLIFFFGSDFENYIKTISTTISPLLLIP

Structure (SMILES) | Ki (human FLAP) [nM] | IC50 [1] [nM]
Nc1cnc(-c2ccc(C3CCC3)c(OCC3CCCO3)c2F)cn1 (stereo not drawn) [Example 252, 5-(4-Cyclobutyl-2-fluoro-3-((tetrahydrofuran-2-yl)methoxy)phenyl)pyrazin-2-amine] | 29.6 | > 1000
Nc1cnc(-c2ccc(C3CCC3)c(Oc3ccnnc3)c2F)cn1 [Example 257, 5-(4-Cyclobutyl-2-fluoro-3-(pyridazin-4-yloxy)phenyl)pyrazin-2-amine] | 31.1 | 332
Nc1cnc(-c2ccc(C3CCC3)c(Oc3nccnc3N)c2F)cn1 [Example 258, 3-(3-(5-Aminopyrazin-2-yl)-6-cyclobutyl-2-fluorophenoxy)pyrazin-2-amine] | 3.8 | 10.1
Nc1cnc(-c2ccc(C3CCC3)c(Oc3cnccn3)c2F)cn1 [Example 259, 5-(4-Cyclobutyl-2-fluoro-3-(pyrazin-2-yloxy)phenyl)pyrazin-2-amine] | 7 | 134
Nc1cnc(-c2ccc(C3CCC3)c(Oc3ccncn3)c2F)cn1 [Example 260, 5-(4-Cyclobutyl-2-fluoro-3-(pyrimidin-4-yloxy)phenyl)pyrazin-2-amine] | 19.9 | 197
CC(C)CNc1nccc(Oc2c(C3CCC3)ccc(-c3cnc(N)cn3)c2F)n1 [Example 261, 4-(3-(5-Aminopyrazin-2-yl)-6-cyclobutyl-2-fluorophenoxy)-N-isobutylpyrimidin-2-amine trifluoroacetic acid salt] | 1.3 | 40.1
COC(=O)c1ccc2oc(COc3c(C4CCC4)ccc(-c4cnc(N)cn4)c3F)nc2c1 [Example 262, Methyl 2-{[3-(5-aminopyrazin-2-yl)-6-cyclobutyl-2-fluorophenoxy]methyl}-1,3-benzoxazole-5-carboxylate] | 19.6 | 160
COC(=O)c1ccc(O)c(NC(=O)COc2c(C3CCC3)ccc(-c3cnc(N)cn3)c2F)c1 [Example 263, Methyl 3-({[3-(5-aminopyrazin-2-yl)-6-cyclobutyl-2-fluorophenoxy]acetyl}amino)-4-hydroxybenzoate] | 138 | 1960
CNc1nc(C)cc(Oc2c(C3CCC3)ccc(-c3cnc(N)cn3)c2F)n1 [Example 269, 4-[3-(5-Aminopyrazin-2-yl)-6-cyclobutyl-2-fluorophenoxy]-N,6-dimethylpyrimidin-2-amine] | 0.9 | 15.1
Nc1cnc(-c2ccc(C3CCC3)c(Oc3nc(N)c4ccccc4n3)c2F)cn1 [Example 272, 2-[3-(5-Aminopyrazin-2-yl)-6-cyclobutyl-2-fluorophenoxy]quinazolin-4-amine] | 0.5 | 41.9
N#CCOc1c(C2CCC2)ccc(-c2cnc(N)cn2)c1F [Example 276, [3-(5-Aminopyrazin-2-yl)-6-cyclobutyl-2-fluorophenoxy]acetonitrile] | 39.2 | 406
Nc1cnc(-c2ccc(C3CCC3)c(Oc3cccnn3)c2F)cn1 [Example 277, 5-[4-Cyclobutyl-2-fluoro-3-(pyridazin-3-yloxy)phenyl]pyrazin-2-amine] | 17.7 | 135
Nc1cnc(-c2ccc(C3CC3)c(Oc3ncccn3)c2F)cn1 [Example 278, 5-[4-Cyclopropyl-2-fluoro-3-(pyrimidin-2-yloxy)phenyl]pyrazin-2-amine] | 100 | 216
Nc1cnc(-c2ccc(C3CC3)c(Oc3nccc(N)n3)c2F)cn1 [Example 279, 2-[3-(5-Aminopyrazin-2-yl)-6-cyclopropyl-2-fluorophenoxy]pyrimidin-4-amine] | 67.5 | 147
COC(=O)c1coc(COc2c(C3CCC3)ccc(-c3cnc(N)cn3)c2F)n1 [Example 281, Methyl 2-{[3-(5-aminopyrazin-2-yl)-6-cyclobutyl-2-fluorophenoxy]methyl}-1,3-oxazole-4-carboxylate trifluoroacetic acid salt] | 101 | 370
Nc1cnc(-c2ccc(C3CCC3)c(OCc3nc(C(=O)O)co3)c2F)cn1 [Example 282, 2-{[3-(5-Aminopyrazin-2-yl)-6-cyclobutyl-2-fluorophenoxy]methyl}-1,3-oxazole-4-carboxylic acid trifluoroacetic acid salt] | 29.4 | > 10000
Nc1cnc(-c2ccc(C3CCC3)c(OCc3ccc(Cl)cn3)c2F)cn1 [Example 289, 5-{3-[(5-Chloropyridin-2-yl)methoxy]-4-cyclobutyl-2-fluorophenyl}pyrazin-2-amine trifluoroacetic acid salt] | 229 | 782
N#Cc1ccc(COc2c(C3CCC3)ccc(-c3cnc(N)cn3)c2F)cn1 [Example 290, 5-{[3-(5-Aminopyrazin-2-yl)-6-cyclobutyl-2-fluorophenoxy]methyl}pyridine-2-carbonitrile trifluoroacetic acid salt] | 39.9 | 506

Structure (SMILES) | Ki (human FLAP) [nM] | IC50 [1] [nM]
Cc1cc(COc2c(C3CCC3)ccc(-c3cnc(N)cn3)c2F)no1 [Example 291, 5-{4-Cyclobutyl-2-fluoro-3-[(5-methylisoxazol-3-yl)methoxy]phenyl}pyrazin-2-amine trifluoroacetic acid salt] | 46.6 | 576
N#Cc1cccc(COc2c(C3CCC3)ccc(-c3cnc(N)cn3)c2F)n1 [Example 292, 6-{[3-(5-Aminopyrazin-2-yl)-6-cyclobutyl-2-fluorophenoxy]methyl}pyridine-2-carbonitrile trifluoroacetic acid salt] | 37.2 | 412
Nc1cnc(-c2ccc(C3CCC3)c(OCCN3C(=O)c4ccccc4C3=O)c2F)cn1 [Example 293, 2-{2-[3-(5-aminopyrazin-2-yl)-6-cyclobutyl-2-fluorophenoxy]ethyl}-1H-isoindole-1,3(2H)-dione] | 16.5 | 1000
Nc1cnc(-c2ccc(C3CCC3)c(OCCNc3cnccn3)c2F)cn1 [Example 295, 5-{4-Cyclobutyl-2-fluoro-3-[2-(pyrazin-2-ylamino)ethoxy]phenyl}pyrazin-2-amine trifluoroacetic acid salt] | 4.2 | 149
Nc1cnc(-c2ccc(C3CCC3)c(OCCNc3ncccn3)c2F)cn1 [Example 296, N-{2-[3-(5-Aminopyrazin-2-yl)-6-cyclobutyl-2-fluorophenoxy]ethyl}pyrimidin-2-amine trifluoroacetic acid salt] | 6.8 | 350
Nc1cnc(-c2ccc(C3CCC3)c(OCCNc3ccncn3)c2F)cn1 [Example 297, N-{2-[3-(5-Aminopyrazin-2-yl)-6-cyclobutyl-2-fluorophenoxy]ethyl}pyrimidin-4-amine] | 14.4 | 263
Nc1cnc(-c2ccc(C3CCC3)c(Oc3ncc(-c4cnc(N)nc4)cn3)c2F)cn1 [Example 313, 2′-[3-(5-Aminopyrazin-2-yl)-6-cyclobutyl-2-fluorophenoxy]-5,5′-bipyrimidin-2-amine] | 2.4 | 27
CCc1ccc(-c2cnc(N)cn2)c(F)c1Oc1nccc(N)n1 [Example 317, 2-[3-(5-Aminopyrazin-2-yl)-6-ethyl-2-fluorophenoxy]pyrimidin-4-amine] | 198 | 464
CC(C)c1ccc(-c2cnc(N)cn2)c(F)c1Oc1ncccn1 [Example 318, 5-[2-Fluoro-4-(1-methylethyl)-3-(pyrimidin-2-yloxy)phenyl]pyrazin-2-amine] | 58.1 | 103
CCCc1ccc(-c2cnc(N)cn2)c(F)c1Oc1ncccn1 [Example 319, 5-[2-Fluoro-4-propyl-3-(pyrimidin-2-yloxy)phenyl]pyrazin-2-amine] | 337 | 284
Nc1cnc(-c2ccc(CC3CCCCC3)c(Oc3ncccn3)c2F)cn1 [Example 321, 5-(4-(Cyclohexylmethyl)-2-fluoro-3-(pyrimidin-2-yloxy)phenyl)pyrazin-2-amine] | 116 | > 10000
CC(C)Cc1ccc(-c2cnc(N)cn2)c(F)c1Oc1ncccn1 [Example 323, 5-(2-Fluoro-4-isobutyl-3-(pyrimidin-2-yloxy)phenyl)pyrazin-2-amine] | 211 | 141
CC(C)(C)Cc1ccc(-c2cnc(N)cn2)c(F)c1Oc1ncccn1 [Example 324, 5-(2-Fluoro-4-neopentyl-3-(pyrimidin-2-yloxy)phenyl)pyrazin-2-amine] | 73.8 | 260
Nc1cnc(-c2ccc(C3CCCCC3)c(Oc3nccc(N)n3)c2F)cn1 [Example 325, 2-(3-(5-Aminopyrazin-2-yl)-6-cyclohexyl-2-fluorophenoxy)pyrimidin-4-amine] | 9.5 | 52.7
CC(C)Cc1ccc(-c2cnc(N)cn2)c(F)c1Oc1nccc(N)n1 [Example 328, 2-(3-(5-Aminopyrazin-2-yl)-2-fluoro-6-isobutylphenoxy)pyrimidin-4-amine] | 113 | 312
NC(=O)c1ncc(Oc2c(C3CCC3)ccc(-c3cnc(N)cn3)c2F)cn1 [Example 329, 5-(3-(5-Aminopyrazin-2-yl)-6-cyclobutyl-2-fluorophenoxy)pyrimidine-2-carboxamide] | 9.7 | 39
Cc1csc2ncnc(Oc3c(C4CCC4)ccc(-c4cnc(N)cn4)c3F)c12 [Example 331, 5-(4-Cyclobutyl-2-fluoro-3-((5-methylthieno[2,3-d]pyrimidin-4-yl)oxy)phenyl)pyrazin-2-amine] | 3.7 | 12.9
Nc1cnc(-c2ccc(C3CCC3)c(OCCNc3ccnc(N)n3)c2F)cn1 [Example 332, N^4-(2-(3-(5-Aminopyrazin-2-yl)-6-cyclobutyl-2-fluoro-phenoxy)ethyl)pyrimidine-2,4-diamine] | 45.8 | 450

Reference: US9073876B2, “Flap modulators” (JANSSEN PHARMACEUTICA NV, priority 2013, dated 2015)
